This is an account of results in paper PMC3223204, “Implantation Serine Proteinase 1 Exhibits Mixed Substrate Specificity that Silences Signaling via Proteinase-Activated Receptors” (PLoS ONE, 2011).

Entries after “also recorded” stand apart in the source; their conditions may differ. Structures can show the parent of a compound that is named as a salt. Where two headings read alike, the source gives them in different places. Non-standard residues stand in square brackets, D forms with d. Residues, ends and D or L forms follow the SMILES beside them. *: point of attachment. pNA = O=[N+]([O-])c1ccc(N*)cc1; Tos = Cc1ccc(S(=O)(=O)*)cc1; Bz = O=C(c1ccccc1)*

Data set [1] concerns the target T1, recombinant ISP1 (Mus musculus, UniProt Q924N9).
T1 construct: Myc (C); His6 (C); made in house; host or cells: Pichia pastoris SMD1168
T1 sequence (Q924N9 31-274 limits assumed): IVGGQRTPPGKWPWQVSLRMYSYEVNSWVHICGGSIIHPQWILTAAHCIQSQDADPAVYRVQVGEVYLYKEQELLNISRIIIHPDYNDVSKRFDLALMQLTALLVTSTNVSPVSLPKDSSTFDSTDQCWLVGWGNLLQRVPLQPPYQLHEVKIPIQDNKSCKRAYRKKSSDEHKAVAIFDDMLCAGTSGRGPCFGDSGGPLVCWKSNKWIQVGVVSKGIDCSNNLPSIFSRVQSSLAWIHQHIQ
Nature of the data set: Inhibition of recombinant ISP1 by general serine proteinase inhibitors. The data set is classed as biochemical. The conditions noted are these: for Effect on enzyme activity of rISP1: 2 mM BAPNA as well as 150 µM VPR-AMC as substrate, result in words; for Ki: read-out: Ki (Apparent Ki). Here is the method: (§1) p-Nitroanilide substrates, Valine-Proline-Arginine-Amino methyl coumarin (VPR-AMC), Benzamidine Hydrochloride, TLCK (N -p-tosyl-L-lysine chloromethyl ketone), APMSF (4-Amidino-Phenyl)-Methane-Sulfonyl Fluoride), Trypsin Soybean Inhibitor (TSI) and Gabexate mesylate were obtained from Sigma Aldrich and Co. Oakville, ON Canada. Chromogenic assays were performed using the p-Nitroanilide/methyl-naphthylamide conjugated peptidic substrates. The reaction conditions used were: 25 mM Tris.Cl (pH 8.0) buffer with 10 mM EDTA reaction buffer, in a total reaction volume of 0.5 mL including varying concentrations of the substrates and enzyme sample. The reactions were done at room temperature in a glass cuvette (1 cm path length), and scanned at wavelength of 405 nm (in case of p-nitroanilide conjugated substrates) and 540 nm (in case of methyl-naphthylamide substrates) using a spectrophotometer. 1 Unit of enzyme is defined as the amount of enzyme capable of the breakdown of 1 micromole of substrate/min.
(§2) The catalytic activity of recombinant ISP1 with various small chromogenic peptide substrates was characterized by measuring enzyme cleavage at differing substrate concentrations and plotting enzyme activity [V] vs. substrate concentration [S] and calculating Michaelis Menten constant (Km). The Km was calculated using the Michaelis Menten equation (Km = [S] at ½ Vmax). Sigma plot was used for plotting the values obtained and determining Michaelis Menten Constant (Km). Inhibition of proteolytic activity of recombinant ISP1 was determined by measuring enzyme activity in the presence of varying concentrations of serine proteinase inhibitors. 2 mM BAPNA and 150 uM VPR-AMC were employed for enzyme assays in these inhibition studies. Sigma plot was used for plotting the values obtained in order to determine dissociation constant (Ki). Enzyme concentration [E] used for these experiments was 6.5 uM. This value was employed for calculating turnover number (kcat) and enzyme efficiency represented by kcat/Km ratio.

Data set [2] addresses T1, recombinant ISP1. In words: Chromogenic substrate kinetics of recombinant ISP1. The format is biochemical. The conditions noted are these: for Hydrolysis of chromogenic substrate by rISP1: result in words; for Turnover No. (kcat) / Km / Michaelis Menton Constant (Km): substrate of recombinant ISP1, 25 mM Tris.Cl pH 8.0, room temperature; for Turnover No. (kcat): [E] 6.5 uM; for Km: read-out: Michaelis Menton Constant (Km). Here is the method:
as §1, §2

On to `N=C(N)c1ccccc1` [Benzamidine Hydrochloride], for which, at recombinant ISP1 [1], the “Effect on enzyme activity of rISP1” value was “no noticeable effect”. The “Ki (Apparent Ki)” value at recombinant ISP1 [1] (substrate BAPNA (2 mM)) is listed as “No inhibition”.

For the molecule `COc1cc(NC(=O)C(CCCNC(=N)N)NC(=O)C(CCCNC(=N)N)NC(=O)C(CCCNC(=N)N)NC(=O)OCc2ccccc2)cc2ccccc12` (stereo not shown) [N-CBZ-arginine-arginine-arginine-4-methoxy naphthylamide], on recombinant ISP1 [2], the “Hydrolysis of chromogenic substrate by rISP1” value (from here on “Hydrolysis”) is given as “hydrolyzed”, the “Turnover No. (kcat)” value was found to be 0.7 s⁻¹ and the Km was found to be 99 µM. Further, the Km on recombinant ISP1 [2] (listed as RRRmN) was about 100 µM.

As for `CC(C)C[C@H](NC(=O)[C@H](N)C(C)C)C(=O)N[C@@H](CCCCN)C(=O)Nc1ccc([N+](=O)[O-])cc1.Cl` [Valine-Leucine-Lysinep-nitroanilide, H-D-valine-leucine-lysine p-nitroanilide hydrochloride] (H-[dV]-Leu-Lys-pNA), at recombinant ISP1 [2], the “Hydrolysis” value is on record as “no enzyme activity”, the “Michaelis Menton Constant (Km)” value was “Nil” and the “Turnover No. (kcat)” value is given as “Nil”.

For the molecule `C[C@H](NC(=O)CCC(=O)O)C(=O)N[C@@H](C)C(=O)N[C@@H](C)C(=O)Nc1ccc([N+](=O)[O-])cc1` [N-Succinyl-alanine-alanine-alanine p-nitroanilide], on recombinant ISP1 [2], the “Hydrolysis” value was “no reaction”, the “Michaelis Menton Constant (Km)” value was “Nil” and the “Turnover No. (kcat)” value was “Nil”.

Turning to Aprotinin, the “Effect on enzyme activity of rISP1” value with recombinant ISP1 [1] is “no noticeable effect”. Also, the “Ki (Apparent Ki)” value at recombinant ISP1 [1] (substrate BAPNA (2 mM)) is “No inhibition”.

As for `C[C@H](N)C(=O)Nc1ccc([N+](=O)[O-])cc1` [Alanine p-nitroanilide], on recombinant ISP1 [2], the “Hydrolysis” value is “no reaction”, the “Michaelis Menton Constant (Km)” value is reported as “Nil” and the “Turnover No. (kcat)” value is reported as “Nil”.

As to `O=S(=O)(F)Cc1ccccc1` [PMSF], on recombinant ISP1 [1], the “Effect on enzyme activity of rISP1” value is given as “inhibited the enzyme activity; also recorded: strong inhibitory activity”. For the same molecule, on recombinant ISP1 [1] (substrate VPR-AMC (0.15 mM)), the Ki came to 340 µM.

As to `CC[C@H](C)[C@H](NC(=O)c1ccccc1)C(=O)N[C@@H](Cc1ccccc1)C(=O)N[C@@H](CCCCN)C(=O)Nc1ccc([N+](=O)[O-])cc1.Cl` [N-Benzoyl-isoleucine-phenylalanine-lysine p-nitroanilide hydrochloride] (Bz-Ile-Phe-Lys-pNA), on recombinant ISP1 [2], the “Hydrolysis” value is recorded as “hydrolyzed”, the “Turnover No. (kcat)” value is 3.9 s⁻¹ and the Km was found to be 9600 µM.

For `CC(C)[C@H](N)C(=O)N[C@@H](Cc1ccccc1)C(=O)N[C@@H](CCCCN)C(=O)Nc1ccc([N+](=O)[O-])cc1` [Valine-Phenylalanine-Lysine p-nitroanilide] (H-Val-Phe-Lys-pNA), at recombinant ISP1 [2], the “Hydrolysis” value is given as “no enzyme activity”, the “Michaelis Menton Constant (Km)” value was “Nil” and the “Turnover No. (kcat)” value is given as “Nil”.

Consider `Cc1ccc(S(=O)(=O)N[C@@H](CCCCN)C(=O)CCl)cc1` [TLCK, N -p-tosyl-L-lysine chloromethyl ketone], for which the “Effect on enzyme activity of rISP1” value on recombinant ISP1 [1] was “inhibited the enzyme activity; also recorded: strong inhibitory activity”. Moreover, the Ki at recombinant ISP1 [1] (substrate VPR-AMC (0.15 mM)) worked out at 30 µM.

With `CC(=O)N[C@@H](CC(C)C)C(=O)N[C@@H](CC(C)C)C(=O)N[C@H](C=O)CCCNC(=N)N` [Leupeptin], the “Effect on enzyme activity of rISP1” value at recombinant ISP1 [1] is “no noticeable effect”. Moreover, the “Ki (Apparent Ki)” value at recombinant ISP1 [1] (substrate BAPNA (2 mM)) is given as “No inhibition”.

Consider “α-1-Antitrypsin: general serine proteinase inhibitor”, for which the entries for the “Effect on enzyme activity of rISP1” value with recombinant ISP1 [1] and with recombinant ISP1 [1] (listed as α-1 antitrypsin) were “inhibited the enzyme activity” and “strong inhibitory activity”, respectively. For the same molecule, in the data set with recombinant ISP1 [1] (substrate BAPNA (2 mM)), the Ki was determined as 2 µM.

For the molecule `CC(C)C[C@H](NC(=O)[C@@H](NC(=O)N[C@@H](Cc1ccccc1)C(=O)O)[C@@H]1CCN=C(N)N1)C(=O)N[C@H](C=O)Cc1ccccc1` [Chymostatin], the results for the “Effect on enzyme activity of rISP1” value at recombinant ISP1 [1] and on recombinant ISP1 [1] (listed as chymostatin) were “inhibited the enzyme activity” and “strong inhibitory activity”, respectively. Moreover, the Ki at recombinant ISP1 [1] (substrate BAPNA (2 mM)) turned out to be 220 µM.

Regarding `CCOC(=O)c1ccc(OC(=O)CCCCCN=C(N)N)cc1.CS(=O)(=O)O` [Gabexate mesylate], the “Effect on enzyme activity of rISP1” value at recombinant ISP1 [1] is “inhibited the enzyme activity”; at recombinant ISP1 [1] (listed as gabexate mesylate), “strong inhibitory activity”. Further, the Ki at recombinant ISP1 [1] (substrate BAPNA (2 mM)) came out at 1700 µM.

For `CC(C)[C@H](NC(=O)[C@H](Cc1ccccc1)NC(=O)c1ccccc1)C(=O)N[C@@H](CCCNC(=N)N)C(=O)Nc1ccc([N+](=O)[O-])cc1.Cl` [N-Benzoyl-phenylalanine-valine-arginine p-nitroanilide hydrochloride] (Bz-Phe-Val-Arg-pNA), on recombinant ISP1 [2], the “Hydrolysis” value is on record as “hydrolyzed”, the “Turnover No. (kcat)” value was found to be 0.14 s⁻¹ and the Km amounted to 360 µM.

Turning to `CC(=O)O.Cc1ccc(S(=O)(=O)NCC(=O)N2CCC[C@H]2C(=O)N[C@@H](CCCCN)C(=O)Nc2ccc([N+](=O)[O-])cc2)cc1` [N(p-tosyl)-glycine-proline-lysine p-nitroanilide acetate] (Tos-Gly-Pro-Lys-pNA), on recombinant ISP1 [2], the “Hydrolysis” value is “no enzyme activity”, the “Michaelis Menton Constant (Km)” value is on record as “Nil” and the “Turnover No. (kcat)” value was “Nil”.

For the molecule `Cl.N=C(N)NCCC[C@H](NC(=O)c1ccccc1)C(=O)Nc1ccc([N+](=O)[O-])cc1` [N-Benzoyl Argininep-nitroanilide (BAPNA), N-Benzoyl-L- arginine p-nitroanilide hydrochloride], on recombinant ISP1 [2], the “Hydrolysis” value is listed as “hydrolyzed”, the “Turnover No. (kcat)” value was determined as 2.2 s⁻¹ and the Km was 610 µM.

B1: Recombinant human SLPI: recombinant human Secretory Leukocyte Protease Inhibitor (protein, UniProt P03973 26-132, looked up)
Antileukoproteinase: SGKSFKAGVCPPKKSAQCLRYKKPECQSDWQCPGKKRCCPDTCGIKCLDPVDTPNPTRRKPGKCPVTYGQCLMLNPPNFCEMDGQCKRDLKCCMGMCGKSCVSPVKA
As to B1, in the data set with recombinant ISP1 [1], the “Effect on enzyme activity of rISP1” value is recorded as “no noticeable effect”. The “Ki (Apparent Ki)” value in the data set with recombinant ISP1 [1] (substrate BAPNA (2 mM)) is “No inhibition”.

B2: Soybean Trypsin Inhibitor: general serine proteinase inhibitor (protein, UniProt P01070 25-205, looked up)
Trypsin inhibitor A: DFVLDNEGNPLENGGTYYILSDITAFGGIRAAPTGNERCPLTVVQSRNELDKGIGTIISSPYRIRFIAEGHPLSLKFDSFAVIMLCVGIPTEWSVVEDLPEGPAVKIGENKDAMDGWFRLERVSDDEFNNYKLVFCPQQAEDDKCGDIGISIDHDDGTRRLVVSKNKPLVVQFQKLDKESL
In the case of B2, the entries for the “Effect on enzyme activity of rISP1” value with recombinant ISP1 [1] and in the data set with recombinant ISP1 [1] (listed as trypsin soybean inhibitor) were “inhibited the enzyme activity” and “strong inhibitory activity”, respectively. In addition, the Ki in the data set with recombinant ISP1 [1] (substrate BAPNA (2 mM)) was found to be 2.4 µM.

As a reminder, the Km is the concentration of substrate that gives half-maximal velocity.
